Key:
[1] = test system: Arabidopsis thaliana afb5‐1 seedlings; assay: Root growth inhibition bioassay, afb5‐1 mutant; assay type: in vivo; conditions: afb5‐1 vs WT dose-response, 8 days
Description: (§1) A. thaliana seed was surface sterilized in 10 mL of 50% bleach and two drops of Tween‐20 for 12 min and rinsed six times with sterile water. Sterile growth media consisted of half‐strength Murashige and Skoog salts supplemented with 0.4% agar and 0.8% sucrose. In a laminar flow hood, 8 mL of liquid media was transferred to sterile test‐tubes placed in a heat block to maintain media in a liquid state. Compounds were previously diluted in 50/50 DMSO/water to a known molar concentration. A 50‐μL aliquot of diluted compound was added to each tube to give a specified final concentration, normally 10, 1, 0.1, 0.01 or 0.001 μM. A single tube was treated with solvent only as a control. Test compounds were mixed into the media by pipetting up and down three times, then 6 mL of media with test compound was added to one well in a six‐well plate, working from low‐to‐high concentration, and allowed to solidify in the laminar flow hood. Approximately 15 sterilized seeds were placed on the solidified surface and the remaining 2 mL of liquid media was added to cover and disperse seeds. Plates were sealed with paraffin and moved to a Conviron growth chamber set to 60% humidity, 25 °C and light intensity 100 μE m^2 s^−1 with a 16 h photoperiod. After 8 days primary root measurements of five random plants were taken by removing plants from media and measuring with a ruler. Treatments were compared against the solvent control to determine percentage root growth inhibition. Each experiment was run twice and averages were combined for analysis.

AtAFB2 = biological target: T1, AtAFB2 (Arabidopsis thaliana, UniProt Q9LW29); assay: SPR relative binding (co-receptor complex formation with Aux/IAA7 degron), AtAFB2; conditions: 50 μM compound
T1 construct: His10 (N, cleaved yes); eGFP (N, cleaved yes); FLAG (N, cleaved yes); made in house; host or cells: baculovirus; Trichoplusia ni Hi5 cells (virus generated in Sf9)
Description: (§2) Auxin binding assays using surface plasmon resonance (SPR) were performed on a Biacore 2000 as described previously.[3], [18], [23] Protein was stored on ice and protein concentrations were assayed by A280 nm measurement (nanodrop, Thermo Scientific). Briefly, AtAux/IAA7 degron peptide was immobilized on streptavidin‐coated SPR chips, and binding was measured in the presence of IAA or auxin analogue by recruitment of the TIR1/AFB protein from solution as the co‐receptor complex formed on the chip. Kinetic analyses were performed by single cycle kinetics on a Biacore T200 (Cytiva Life Sciences), titrating compounds against a fixed concentration of TIR1 before injection. The degron peptide density on the chips was controlled so that R max < 300 Response UNits (RU).

[2] = test system: Arabidopsis thaliana Col‐0 seedlings; assay: Root growth inhibition bioassay, wild type; assay type: in vivo; conditions: 8 days, up to 10 μM
Description: as §1, with “Treatments were compared against the solvent control to determine percentage root growth inhibition. Each experiment was run twice and averages were combined for analysis.” left out

[3] = test system: Arabidopsis thaliana wild type (WT) Col‐0; assay: Foliar efficacy bioassay, wild type; assay type: in vivo; conditions: foliar application; for GR50 (DW % of NT): dry weight at 14 DAT
Description: (§3) Bioassays were carried out with the model species Arabidopsis thaliana. The wild type (WT) Col‐0 line was compared to an afb5‐1 mutant line in a Col‐0 background containing a missense mutation of R609K.[11] A. thaliana seeds were sown on Metro‐mix 360 potting mix (Sungro Horticulture) supplemented with vermiculite and stratified for 3 days at 4 °C in the dark. Flats were moved to a growth chamber (as above) and a plastic lid was placed on the flat. On germination, the lid was removed. After 2 weeks in the growth chamber, seedlings were transplanted into 3‐in. pots with Metro‐mix 360 potting mix and moved to a greenhouse. The greenhouse was maintained at a day/night temperature of 23/22 °C and supplemented with light to complete a 16 h photoperiod. Plants were allowed to recover from transplanting for 1 week prior to applications. A. thaliana seedlings were sprayed with test compounds at five rates with four replications. Tests included nontreated and solvent check controls. Individual compound doses varied and were based on plate test data or anecdotal potency. Compounds were formulated as technical material and were initially dissolved in 1 part 97:3 (v/v) acetone: dimethylsufoxide (DMSO) followed by 5 parts 1.5% (v/v) Agridex crop oil concentrate in distilled water to give a final concentration of 1.25% (v/v) Agridex. Formulated compounds were sprayed at a volume of 187 L ha^−1 at a spray height of 43 cm above the plants with an overhead Mandel track sprayer set with 8002 E Tee jet nozzle. Plants were treated at rosette stage just prior to or at initiation of bolting. After spray application, plants were allowed to dry then moved back to the greenhouse. Plants were grown in the greenhouse (same conditions as above) for 2 weeks until harvest. Visual injury/growth reduction observations were made at 7 and 14 days after treatment (DAT) and scored where 0% = no growth reduction and 100% = complete growth reduction or plant death. At 14 DAT the plants were harvested and dried to collect dry weight (DW) biomass.
(§4) The data collected in the foliar application of compounds generated a measure of sensitivity or dose response. The data was analyzed by regression in JMP 10.0 and fit to a nonlinear exponential three parameter fit model:
(§5) where a is the asymptote, b is the scale and c is the rate of growth. The model was used to determine the herbicidal dose that caused 50% reduction in growth (GR50). GR50 values were compared between mutant and WT to give an indication of fold resistance over WT (Table 3). A log‐logistic model[24] was also used to fit the data and gave similar GR50 values with greater standard errors without changing the pattern of responsiveness.

AtAFB5 [4] = biological target: T2, AtAFB5 (Arabidopsis thaliana, UniProt Q9LTX2); assay: biochemical; assay type: binding
T2 construct: His10 (N, cleaved yes); eGFP (N, cleaved yes); FLAG (N, cleaved yes); made in house; host or cells: baculovirus; Trichoplusia ni Hi5 cells (virus generated in Sf9)
Description: as §2

AtTIR1 [5] = biological target: T3, AtTIR1 (Arabidopsis thaliana, UniProt Q570C0); assay: biochemical; assay type: binding
T3 construct: His10 (N, cleaved yes); eGFP (N, cleaved yes); FLAG (N, cleaved yes); made in house; host or cells: baculovirus; Trichoplusia ni Hi5 cells (virus generated in Sf9)
Description: as §2

[6] = test system: Arabidopsis thaliana afb5‐1 mutant line; assay type: in vivo; conditions: for GR50 (DW % of NT): dry weight at 14 DAT; for Resistance ratio (afb5‐1 vs WT), DW: ratio of dry weight GR50 values, foliar application
Description: as §3, §4, §5

AtTIR1 [7] = biological target: T3, AtTIR1; assay: SPR relative binding (co-receptor complex formation with Aux/IAA7 degron), AtTIR1; conditions: 50 μM compound
Description: as §2

AtAFB5 [8] = biological target: T2, AtAFB5; assay: SPR relative binding (co-receptor complex formation with Aux/IAA7 degron), AtAFB5; conditions: 50 μM compound
Description: as §2

T2 sequence (Q9LTX2 whole entry, other chains not shown): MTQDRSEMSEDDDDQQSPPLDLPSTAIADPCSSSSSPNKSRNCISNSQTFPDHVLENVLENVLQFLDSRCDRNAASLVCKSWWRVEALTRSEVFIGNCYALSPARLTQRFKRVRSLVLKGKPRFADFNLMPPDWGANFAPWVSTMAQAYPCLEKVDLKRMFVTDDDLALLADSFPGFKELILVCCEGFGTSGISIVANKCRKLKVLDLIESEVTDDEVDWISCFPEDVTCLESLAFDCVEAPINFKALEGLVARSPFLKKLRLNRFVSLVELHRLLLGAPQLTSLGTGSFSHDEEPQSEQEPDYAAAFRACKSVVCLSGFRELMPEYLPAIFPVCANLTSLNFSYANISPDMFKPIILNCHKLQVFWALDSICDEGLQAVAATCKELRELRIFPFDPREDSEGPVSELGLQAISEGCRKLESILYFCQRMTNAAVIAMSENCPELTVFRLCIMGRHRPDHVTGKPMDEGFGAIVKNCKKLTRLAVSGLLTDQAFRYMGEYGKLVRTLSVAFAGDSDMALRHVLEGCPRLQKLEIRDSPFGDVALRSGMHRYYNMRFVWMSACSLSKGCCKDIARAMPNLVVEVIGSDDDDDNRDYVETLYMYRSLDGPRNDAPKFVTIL
T2 sequence (Q39255 whole entry partner, other chains not shown): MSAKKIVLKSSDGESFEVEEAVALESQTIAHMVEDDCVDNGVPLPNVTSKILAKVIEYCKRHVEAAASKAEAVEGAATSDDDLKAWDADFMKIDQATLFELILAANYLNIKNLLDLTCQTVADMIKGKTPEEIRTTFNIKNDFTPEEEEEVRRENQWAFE
T3 sequence (Q570C0 whole entry, other chains not shown): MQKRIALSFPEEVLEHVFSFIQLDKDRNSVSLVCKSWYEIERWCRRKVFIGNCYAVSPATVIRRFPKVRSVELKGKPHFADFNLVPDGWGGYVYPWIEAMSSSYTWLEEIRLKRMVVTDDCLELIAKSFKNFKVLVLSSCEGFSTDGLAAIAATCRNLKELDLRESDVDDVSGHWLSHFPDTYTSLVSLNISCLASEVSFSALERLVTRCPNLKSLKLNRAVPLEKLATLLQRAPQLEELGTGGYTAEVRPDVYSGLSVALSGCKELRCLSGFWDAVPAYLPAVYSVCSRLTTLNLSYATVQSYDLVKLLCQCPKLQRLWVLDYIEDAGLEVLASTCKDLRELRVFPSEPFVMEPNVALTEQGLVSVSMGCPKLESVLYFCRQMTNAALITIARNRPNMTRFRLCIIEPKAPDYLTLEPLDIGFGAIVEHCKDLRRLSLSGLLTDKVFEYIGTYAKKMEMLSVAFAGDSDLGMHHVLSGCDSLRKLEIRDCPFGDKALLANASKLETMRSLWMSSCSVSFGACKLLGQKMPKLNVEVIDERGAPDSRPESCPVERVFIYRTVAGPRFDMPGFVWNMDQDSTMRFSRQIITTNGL
T3 sequence (Q39255 whole entry partner, other chains not shown): as the sequence (Q39255 whole entry partner, other chains not shown) above
T1 sequence (Q9LW29 whole entry, other chains not shown): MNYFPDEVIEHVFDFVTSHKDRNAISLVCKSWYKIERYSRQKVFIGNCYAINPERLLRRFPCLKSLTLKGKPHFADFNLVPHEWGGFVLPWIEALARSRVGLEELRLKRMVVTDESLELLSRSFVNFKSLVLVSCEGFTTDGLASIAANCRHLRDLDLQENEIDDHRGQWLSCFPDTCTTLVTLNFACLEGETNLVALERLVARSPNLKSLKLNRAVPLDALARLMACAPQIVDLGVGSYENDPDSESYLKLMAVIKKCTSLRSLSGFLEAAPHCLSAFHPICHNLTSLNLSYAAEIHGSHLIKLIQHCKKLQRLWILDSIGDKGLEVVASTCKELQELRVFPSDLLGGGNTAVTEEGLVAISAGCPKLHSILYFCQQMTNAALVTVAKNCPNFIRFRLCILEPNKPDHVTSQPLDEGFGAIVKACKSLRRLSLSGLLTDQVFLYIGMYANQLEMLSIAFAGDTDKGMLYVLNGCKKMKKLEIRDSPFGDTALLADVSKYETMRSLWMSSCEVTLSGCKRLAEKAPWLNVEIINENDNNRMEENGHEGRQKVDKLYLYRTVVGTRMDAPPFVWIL
T1 sequence (Q39255 whole entry partner, other chains not shown): as the sequence (Q39255 whole entry partner, other chains not shown) above

SMILES | Resistance of afb5‐1 in root growth inhibition (in words) [1] | Relative binding (in words) (AtAFB2; compared to IAA) | Primary root growth inhibition (in words) [2] | GR50 (DW % of NT) [3] [g ai ha^−1] | GR50 (visual injury) ([3]; visual injury) [g ai ha^−1] | Kd (AtAFB5 [4]) [µM] | Kd (AtTIR1 [5]) [µM] | GR50 (DW % of NT) ([6]; afb5‐1, foliar application) [g ai ha^−1] | Resistance ratio (afb5‐1 vs WT), DW [6] | Relative binding (in words) (AtTIR1 [7]; compared to IAA) | Relative binding (in words) (AtAFB5 [8]; compared to IAA) | % of IAA binding (AtAFB2; normalized to IAA = 100%) [%] | Foliar phytotoxicity (in words) [3] | Foliar phytotoxicity / resistance (in words) ([6]; afb5‐1, foliar application) | % of IAA binding (AtTIR1 [7]; normalized to IAA = 100%) [%] | % of IAA binding (AtAFB5 [8]; normalized to IAA = 100%) [%]
Nc1c(Cl)c(Cl)nc(C(=O)O)c1Cl [Picloram] | considerable resistance | relatively low binding | low level of phytotoxicity | 13.7 | 202 | 107 | 319 | 996 | 72.7 | relatively low binding | relatively low binding | – | – | – | – | –
O=C(O)c1c(Cl)ccc2cc(Cl)cnc12 [Quinclorac] | No resistance | – | very low root growth inhibition | 1015 | – | – | – | 1002 | 1 | – | – | < 5 | did not provide much phytotoxicity | did not provide much phytotoxicity | < 5 | < 5
